Experimental data published in ChEMBL document CHEMBL3046130, “Apteniols AF, oxyneolignans from the leaves of Aptenia cordifolia” (Tetrahedron, 2005).
Active and inactive are the calls of the source. No cut-off for these calls is given here.

Assays:
Lactuca sativa [1] = assay: Phytotoxicity against Lactuca sativa (lettuce) assessed as reduction of seed germination measured daily for 5 days relative to control; type: functional, organism-based
Lactuca sativa [2] = assay: Phytotoxicity against Lactuca sativa (lettuce) assessed as reduction of root elongation at 10^-4 M measured daily for 5 days relative to control; type: functional; set-up: scale not given: the % may be the effect or the level left
Lactuca sativa [3] = assay: Phytotoxicity against Lactuca sativa (lettuce) assessed as reduction of shoot elongation at 10^-7 M measured daily for 5 days relative to control; type: functional, organism-based
Lactuca sativa [4] = assay: Phytotoxicity against Lactuca sativa (lettuce) assessed as reduction of seed germination at 10^-5 M measured daily for 5 days relative to control; type: functional; set-up: scale not given: the % may be the effect or the level left
Lactuca sativa [5] = assay: Stimulation of root elongation in Lactuca sativa (lettuce) at 10^-7 M measured daily for 5 days relative to control; type: organism-based; conditions: in vivo, 120 h, 0.1 µM

| Compound | Activity (Lactuca sativa [1]) | Activity (Lactuca sativa [2]) | Activity (Lactuca sativa [3]) | Activity (Lactuca sativa [4]) | Activity (Lactuca sativa [5]) |
| --- | --- | --- | --- | --- | --- |
| O=C(O)CCc1ccc(Oc2ccc(CCC(=O)O)cc2)cc1 [APTENIOL A] | Dose-dependent effect | 40% | inactive | 25% | – |
| COc1cc(CCC(=O)O)ccc1Oc1ccc(CCC(=O)O)cc1 [APTENIOL B] | Dose-dependent effect | 20% | – | 25% | 20% |
| COC(=O)CCc1ccc(Oc2ccc(CCC(=O)OC)cc2OC)cc1 [APTENIOL C] | Dose-dependent effect | inactive | inactive | 25% | – |
| COc1cc(CCC(=O)O)ccc1Oc1c(OC)cc(CCC(=O)O)cc1OC [APTENIOL D] | Dose-dependent effect | 20% | – | 25% | – |
| COc1cc(CCC(=O)O)cc(OC)c1Oc1c(OC)cc(CCC(=O)O)cc1OC [APTENIOL E] | Dose-dependent effect | 20% | – | 25% | 20% |
| COc1cc(CCC(=O)O)ccc1Oc1ccccc1CCC(=O)O [APTENIOL F] | Dose-dependent effect | 20% | inactive | 25% | – |
